Where two headings read alike, the source gives them in different places.
How the values were obtained:
[1] = system: B-lineage ALL cells; test: cells; conditions: Homo sapiens
Description: Blood and bone marrow samples were obtained from 35 patients with B-lineage ALL (Table SI) treated at the National Cancer Institute (NCI), St Jude Children's Research Hospital (SJCRH) or Johns Hopkins Hospital (JHH) with informed consent. The majority (n=22) were obtained from individuals with multiply relapsed ALL who were referred to the NCI for Phase I clinical trial participation. Thirteen patient samples from initial diagnosis were randomly selected from those available in the tumor banks at SJCRH and JHH. Thirty-three cases were characterized as pre-B ALL by flow cytometry and two as Burkitt-type/mature B-cell ALL. In all cases, >80% blasts expressed CD19 and CD22 antigens by flow cytometry. Cells were cryopreserved in RPMI-1640 medium with 10% fetal bovine serum (FBS) and 10% dimethyl sulfoxide.
Briefly, human bone marrow stromal cells that had been immortalized by telomerase transfection (developed at St Jude Children's Research Hospital) were cultured in RPMI-1640 medium (Invitrogen, Carlsbad, Calif., USA) with 10% fetal calf serum (Sigma-Aldrich, St Louis, Mo., USA). 2×10^4 Stromal cells were plated into each well of flat-bottomed 96-well plates and cultured until confluent. On day 1 of the assay, ALL cells were resuspended in RPMI-1640 medium, 10% heat-inactivated FBS, glutamine (1×) and sodium pyruvate (1×). 3×10^5 ALL cells were added to each well of stroma-coated plates. […] SS1P (50 ng/mL), an antimesothelin Pseudomonas immunotoxin, was used as a negative control. The cytotoxicity of dexamethasone (10 μmol/L) was also tested in this assay. Cells were incubated for a further 72 h in a humidified atmosphere at 37° C. with 5% CO2.
The cells were harvested by vigorous pipetting, transferred to Falcon tubes (Cat. No. 352052; BD Biosciences, San Jose, Calif., USA) and labelled with mouse anti-human CD19 antibody conjugated to fluorescein isothiocyanate (Cat. No. 555412; BD Pharmingen, San Jose, Calif., USA). […] The cells were analysed with a FACScalibur flow cytometer in combination with CellQuest (Becton Dickinson, Franklin Lakes, N.J., USA) and FlowJo software (Tree Star Inc., Ashland, Oreg., USA).
Viability was assessed by setting gates based on the light scatter properties of the blasts. Due to spontaneous cell death, the relative percentage of viable cells at the end of the assay was calculated using the following formula: (no. of CD19^+ viable cells recovered in test well/no. of CD19^+ viable cells in untreated well×100). […]
An exact Wilcoxon rank sum test was used to determine the statistical significance of the difference in unpaired observations between two groups of pediatric patients. […] Correlations between parameters were evaluated using Spearman rank correlation analysis.

[2] = system: human bone marrow stromal cells; conditions: 10 μmol/L, 72 h
Protocol: 2×10^4 Stromal cells were plated into each well of flat-bottomed 96-well plates and cultured until confluent. On day 1 of the assay, ALL cells were resuspended in RPMI-1640 medium, 10% heat-inactivated FBS, glutamine (1×) and sodium pyruvate (1×). 3×10^5 ALL cells were added to each well of stroma-coated plates. […] SS1P (50 ng/mL), an antimesothelin Pseudomonas immunotoxin, was used as a negative control. The cytotoxicity of dexamethasone (10 μmol/L) was also tested in this assay. Cells were incubated for a further 72 h in a humidified atmosphere at 37° C. with 5% CO2.
At the end of the assay, the stromal cells were incubated with WST-1.

Compound C[C@@H]1C[C@H]2[C@@H]3CCC4=CC(=O)C=C[C@]4(C)[C@@]3(F)[C@@H](O)C[C@]2(C)[C@@]1(O)C(=O)CO [dexamethasone, Dexamethasone] has a viability at 10 µM ([1]; 72 h, read-out: percentage of viable ALL cells, range, 10 μmol/l, 72 h) of 4 to 158%, a viability at 10 µM ([1]; read-out: percentage of viable ALL cells, median, 10 μmol/l, ALL samples from diagnosis) of 29% and a viability at 10 µM ([1]; read-out: percentage of viable ALL cells, median, 10 μmol/l, all samples) of 40%. The viability at 10 µM ([1]; read-out: percentage of viable ALL cells, median, 10 μmol/l, relapse samples) was 42% and the “stromal cells compared to untreated controls (WST-1)” value [2] was “no difference”.

— patent US20120177567A1, “Methods of Treating Pediatric Acute Lymphoblastic Leukemia with an Anti-CD22 Immunotoxin” (priority 2010, published 2012)
